From PubChem BioAssay AID1918956 (Molecular Pharmacology Branch, DTP, NCI, 2023)
pIC50: −log10 of the molar value.

Tested on: OVCAR-5 complex spheroids, viability
Test: Anticancer human tumor OVCAR-5 cell line growth inhibition;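 further: spheroids exposed to agents for seven days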;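 on viability, T/C: 100% = DMSO vehicle control wells viability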
Conditions: for pIC50: curve of first compound; for viability, T/C: stronger effect = lower value; active means viability on the fitted dose curve at most 10% of control; inactive means the rest
In short: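 Complex spheroids of tumor cells with HUVEC and human MSCs, exposed to iadademstat combined with other agents. Each agent tested in half-log steps from near clinical Cmax (else 10 microM top), DMSO ≤0.25%.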

CCc1c2c(nc3ccc(O)cc13)-c1cc3c(c(=O)n1C2)COC(=O)[C@]3(O)CC + NC1CCC(NC2CC2c2ccccc2)CC1
> 9.02: pIC50 (second compound 0.1 µM) | pIC50 (second compound 0.316 µM) | pIC50 (second compound 1 µM) | pIC50 (second compound 3.16 µM) | pIC50 (second compound 10 µM)
active: viability, T/C (second compound 0.1 µM, first compound 0.00949 µM) 9.21% | viability, T/C (second compound 0.1 µM, first compound 0.03 µM) 4.18% | viability, T/C (second compound 0.1 µM, first compound 0.0949 µM) 1.08% | viability, T/C (second compound 0.1 µM, first compound 0.3 µM) 0.71% | viability, T/C (second compound 0.316 µM, first compound 0.03 µM) 5.04% | viability, T/C (second compound 0.316 µM, first compound 0.0949 µM) 1.52% | viability, T/C (second compound 0.316 µM, first compound 0.3 µM) 0.83% | viability, T/C (second compound 1 µM, first compound 0.03 µM) 5.17% | viability, T/C (second compound 1 µM, first compound 0.0949 µM) 1.3% | viability, T/C (second compound 1 µM, first compound 0.3 µM) 0.78% | viability, T/C (second compound 3.16 µM, first compound 0.03 µM) 5.77% | viability, T/C (second compound 3.16 µM, first compound 0.0949 µM) 1.49% | viability, T/C (second compound 3.16 µM, first compound 0.3 µM) 0.71% | viability, T/C (second compound 10 µM, first compound 0.03 µM) 5.97% | viability, T/C (second compound 10 µM, first compound 0.0949 µM) 1.81% | viability, T/C (second compound 10 µM, first compound 0.3 µM) 2.3%
inactive: viability, T/C (second compound 0.1 µM, first compound 0.000949 µM) 36.5% | viability, T/C (second compound 0.1 µM, first compound 0.003 µM) 20.8% | viability, T/C (second compound 0.316 µM, first compound 0.000949 µM) 37% | viability, T/C (second compound 0.316 µM, first compound 0.003 µM) 21.9% | viability, T/C (second compound 0.316 µM, first compound 0.00949 µM) 10.2% | viability, T/C (second compound 1 µM, first compound 0.000949 µM) 39.9% | viability, T/C (second compound 1 µM, first compound 0.003 µM) 25.3% | viability, T/C (second compound 1 µM, first compound 0.00949 µM) 11.1% | viability, T/C (second compound 3.16 µM, first compound 0.000949 µM) 41.6% | viability, T/C (second compound 3.16 µM, first compound 0.003 µM) 24.6% | viability, T/C (second compound 3.16 µM, first compound 0.00949 µM) 12.8% | viability, T/C (second compound 10 µM, first compound 0.000949 µM) 41% | viability, T/C (second compound 10 µM, first compound 0.003 µM) 25.4% | viability, T/C (second compound 10 µM, first compound 0.00949 µM) 12.4%

Cn1ncnc1C1c2n[nH]c(=O)c3cc(F)cc(c23)NC1c1ccc(F)cc1 (stereo not given) + NC1CC1c1ccc(-c2cccc(O)c2)cc1
inactive: viability, T/C (second compound 0.1 µM, first compound 0.000316 µM) 101% | viability, T/C (second compound 0.1 µM, first compound 0.001 µM) 94.1% | viability, T/C (second compound 0.1 µM, first compound 0.00316 µM) 85.4% | viability, T/C (second compound 0.1 µM, first compound 0.01 µM) 95.3% | viability, T/C (second compound 0.1 µM, first compound 0.0316 µM) 83.2% | viability, T/C (second compound 0.1 µM, first compound 0.1 µM) 77.8% | viability, T/C (second compound 0.316 µM, first compound 0.000316 µM) 94.6% | viability, T/C (second compound 0.316 µM, first compound 0.001 µM) 99.3% | viability, T/C (second compound 0.316 µM, first compound 0.00316 µM) 95.1% | viability, T/C (second compound 0.316 µM, first compound 0.01 µM) 89.9% | viability, T/C (second compound 0.316 µM, first compound 0.0316 µM) 93% | viability, T/C (second compound 0.316 µM, first compound 0.1 µM) 91.9% | viability, T/C (second compound 1 µM, first compound 0.000316 µM) 81.3% | viability, T/C (second compound 1 µM, first compound 0.001 µM) 91.4% | viability, T/C (second compound 1 µM, first compound 0.00316 µM) 89.7% | viability, T/C (second compound 1 µM, first compound 0.01 µM) 79.5% | viability, T/C (second compound 1 µM, first compound 0.0316 µM) 92.8% | viability, T/C (second compound 1 µM, first compound 0.1 µM) 85.6% | viability, T/C (second compound 3.16 µM, first compound 0.000316 µM) 88.4% | viability, T/C (second compound 3.16 µM, first compound 0.001 µM) 94.2% | viability, T/C (second compound 3.16 µM, first compound 0.00316 µM) 88.1% | viability, T/C (second compound 3.16 µM, first compound 0.01 µM) 81.9% | viability, T/C (second compound 3.16 µM, first compound 0.0316 µM) 74.3% | viability, T/C (second compound 3.16 µM, first compound 0.1 µM) 73.2% | viability, T/C (second compound 10 µM, first compound 0.000316 µM) 82.6% | viability, T/C (second compound 10 µM, first compound 0.001 µM) 96.6% | viability, T/C (second compound 10 µM, first compound 0.00316 µM) 85.5% | viability, T/C (second compound 10 µM, first compound 0.01 µM) 78.2% | viability, T/C (second compound 10 µM, first compound 0.0316 µM) 72.6% | viability, T/C (second compound 10 µM, first compound 0.1 µM) 80.3%
< 7.00: pIC50 (second compound 0.1 µM) | pIC50 (second compound 0.316 µM) | pIC50 (second compound 1 µM) | pIC50 (second compound 3.16 µM) | pIC50 (second compound 10 µM)
